Test results: patent US11117892B2, “Pyrrolo-pyridine derivative compound, method for preparing same, and pharmaceutical composition containing same as active ingredient for prevention or treatment of protein kinase-related diseases” (DAEGU-GYEONGBUK MEDICAL INNOVATION FOUNDATION, priority 2017, dated 2021)

What was measured:
Experiment in all cases: scanMAX Kinase assay panel
Type in all cases: binding
Settings in all cases: read-out: % control
SGK2 = SGK2 (Homo sapiens (Human), UniProt Q9HBY8)
Experimental: (§1) DiscoverX Co. was asked to measure the enzyme (kinase) selectivity, and the experiment was performed using scanMAX™ Kinase assay panel.
(§2) (Example Compound−Positive Control)/(Negative Control−Positive Control)×100 [Equation 1]
(§3) Herein, the positive control indicates the compound showing the % control of 0%, and the negative control indicates DMSO showing the % control of 100%.

EGFR = EGFR (Homo sapiens (Human), UniProt P00533)
Chain of EGFR (P00533 25-1210): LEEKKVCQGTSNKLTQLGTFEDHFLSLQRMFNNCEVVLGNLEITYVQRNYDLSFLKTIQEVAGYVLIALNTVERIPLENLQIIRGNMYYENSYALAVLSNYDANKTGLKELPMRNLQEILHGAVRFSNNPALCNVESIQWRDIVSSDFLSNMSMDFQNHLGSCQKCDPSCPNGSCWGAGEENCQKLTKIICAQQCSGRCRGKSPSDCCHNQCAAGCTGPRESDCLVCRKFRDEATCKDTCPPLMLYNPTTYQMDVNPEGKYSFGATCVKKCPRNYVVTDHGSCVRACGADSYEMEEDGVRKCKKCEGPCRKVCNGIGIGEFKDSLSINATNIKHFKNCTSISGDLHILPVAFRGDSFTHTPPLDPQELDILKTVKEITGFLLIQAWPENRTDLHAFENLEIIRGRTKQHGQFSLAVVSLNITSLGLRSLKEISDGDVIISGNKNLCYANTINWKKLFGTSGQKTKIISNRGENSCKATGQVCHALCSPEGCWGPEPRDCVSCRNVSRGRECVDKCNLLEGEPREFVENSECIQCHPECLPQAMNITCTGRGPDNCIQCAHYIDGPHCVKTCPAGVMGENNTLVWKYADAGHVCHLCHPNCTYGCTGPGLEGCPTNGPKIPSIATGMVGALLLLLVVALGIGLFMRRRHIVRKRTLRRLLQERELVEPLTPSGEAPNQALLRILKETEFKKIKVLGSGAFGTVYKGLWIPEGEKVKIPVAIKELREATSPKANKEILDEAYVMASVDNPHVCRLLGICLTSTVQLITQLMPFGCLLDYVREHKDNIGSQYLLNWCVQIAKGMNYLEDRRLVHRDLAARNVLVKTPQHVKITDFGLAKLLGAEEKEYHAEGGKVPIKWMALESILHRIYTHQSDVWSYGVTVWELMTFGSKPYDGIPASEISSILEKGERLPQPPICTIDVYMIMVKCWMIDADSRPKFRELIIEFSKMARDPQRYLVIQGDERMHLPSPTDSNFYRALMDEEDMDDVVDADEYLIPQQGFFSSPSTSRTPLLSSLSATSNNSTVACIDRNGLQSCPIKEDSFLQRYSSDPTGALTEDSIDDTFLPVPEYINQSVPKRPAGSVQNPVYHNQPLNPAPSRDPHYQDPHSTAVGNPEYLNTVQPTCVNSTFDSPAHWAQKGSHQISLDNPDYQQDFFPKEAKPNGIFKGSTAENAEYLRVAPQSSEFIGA
Experimental: as §1, §2, §3

PIK3CA(E545K) = PIK3CA(E545K) (Homo sapiens (Human), UniProt P42336, E545K)
Experimental: as §1, §2, §3

IRAK4 = IRAK4 (Homo sapiens (Human), UniProt Q9NWZ3)
Experimental: as §1, §2, §3

PKN2 = PKN2 (Homo sapiens (Human), UniProt Q16513)
Chain of PKN2 (Q16513 whole entry): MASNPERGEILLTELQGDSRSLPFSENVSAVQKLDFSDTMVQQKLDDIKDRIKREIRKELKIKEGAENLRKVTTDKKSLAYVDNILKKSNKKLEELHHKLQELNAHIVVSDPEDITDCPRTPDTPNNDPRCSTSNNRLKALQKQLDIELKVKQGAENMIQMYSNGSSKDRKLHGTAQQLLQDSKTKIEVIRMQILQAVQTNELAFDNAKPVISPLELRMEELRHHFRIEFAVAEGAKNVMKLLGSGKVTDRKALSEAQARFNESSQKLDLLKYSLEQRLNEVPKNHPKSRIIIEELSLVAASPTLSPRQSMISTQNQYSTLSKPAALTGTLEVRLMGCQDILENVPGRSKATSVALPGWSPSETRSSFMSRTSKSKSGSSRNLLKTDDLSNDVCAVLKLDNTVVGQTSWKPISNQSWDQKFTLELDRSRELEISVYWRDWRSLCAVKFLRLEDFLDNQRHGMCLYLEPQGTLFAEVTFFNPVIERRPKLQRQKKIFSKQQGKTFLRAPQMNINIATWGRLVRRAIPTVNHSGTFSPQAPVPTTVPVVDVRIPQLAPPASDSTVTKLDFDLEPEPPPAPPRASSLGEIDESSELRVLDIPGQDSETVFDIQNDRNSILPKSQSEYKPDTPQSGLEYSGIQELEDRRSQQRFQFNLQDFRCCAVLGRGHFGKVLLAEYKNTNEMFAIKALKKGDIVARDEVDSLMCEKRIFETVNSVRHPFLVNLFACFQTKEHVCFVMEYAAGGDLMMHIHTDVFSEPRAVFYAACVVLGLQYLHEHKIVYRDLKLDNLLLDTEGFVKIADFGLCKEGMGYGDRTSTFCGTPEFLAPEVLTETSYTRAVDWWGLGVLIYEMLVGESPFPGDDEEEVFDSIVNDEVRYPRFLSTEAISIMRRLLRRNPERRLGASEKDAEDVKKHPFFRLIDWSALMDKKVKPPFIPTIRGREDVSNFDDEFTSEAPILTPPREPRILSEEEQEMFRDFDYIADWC
Experimental: as §1, §2, §3

ERK5 = ERK5 (Homo sapiens (Human), UniProt Q13164)
Chain of ERK5 (Q13164 whole entry): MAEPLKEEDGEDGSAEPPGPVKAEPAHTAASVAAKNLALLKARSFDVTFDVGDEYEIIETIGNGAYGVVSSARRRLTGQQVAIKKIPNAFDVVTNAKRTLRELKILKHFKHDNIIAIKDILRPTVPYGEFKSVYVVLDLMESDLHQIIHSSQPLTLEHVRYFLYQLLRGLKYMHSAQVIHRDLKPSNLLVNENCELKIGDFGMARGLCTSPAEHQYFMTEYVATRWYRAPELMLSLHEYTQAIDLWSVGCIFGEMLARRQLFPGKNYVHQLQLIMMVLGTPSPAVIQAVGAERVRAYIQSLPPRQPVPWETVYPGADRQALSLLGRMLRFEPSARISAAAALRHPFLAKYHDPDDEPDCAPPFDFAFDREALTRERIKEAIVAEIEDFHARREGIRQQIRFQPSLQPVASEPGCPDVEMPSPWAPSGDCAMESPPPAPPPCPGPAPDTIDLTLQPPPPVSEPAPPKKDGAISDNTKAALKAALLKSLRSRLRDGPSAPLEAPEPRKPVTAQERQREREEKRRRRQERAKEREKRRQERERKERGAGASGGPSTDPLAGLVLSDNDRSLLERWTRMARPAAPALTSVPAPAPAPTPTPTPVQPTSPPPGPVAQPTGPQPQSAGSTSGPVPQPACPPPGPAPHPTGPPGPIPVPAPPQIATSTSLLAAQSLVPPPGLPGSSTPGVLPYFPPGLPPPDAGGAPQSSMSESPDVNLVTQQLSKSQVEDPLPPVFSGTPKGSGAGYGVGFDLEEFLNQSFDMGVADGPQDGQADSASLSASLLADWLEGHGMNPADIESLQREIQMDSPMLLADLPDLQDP
Experimental: as §1, §2, §3

[1] = target: RPS6KA5(Kin.Dom.1-N-terminal) (Homo sapiens (Human), UniProt O75582)
Experimental: as §1, §2, §3

LZK = LZK (Homo sapiens (Human), UniProt O43283)
Experimental: as §1, §2, §3

PIM3 = PIM3 (Homo sapiens (Human), UniProt Q86V86)
Experimental: as §1, §2, §3

FGR = FGR (Homo sapiens (Human), UniProt P09769)
Experimental: as §1, §2, §3

CSF1R-autoinhibited = CSF1R-autoinhibited (Homo sapiens (Human), UniProt P07333)
Experimental: as §1, §2, §3

YANK1 = YANK1 (Homo sapiens (Human), UniProt Q8WU08)
Experimental: as §1, §2, §3

CAMK2B = CAMK2B (Homo sapiens (Human), UniProt Q13554)
Experimental: as §1, §2, §3

MAP3K4 = MAP3K4 (Homo sapiens (Human), UniProt Q9Y6R4)
Experimental: as §1, §2, §3

FLT3-autoinhibited = FLT3-autoinhibited (Homo sapiens (Human), UniProt P36888)
Experimental: as §1, §2, §3

CAMKK2 = CAMKK2 (Homo sapiens (Human), UniProt Q96RR4)
Chain of CAMKK2 (Q96RR4 whole entry): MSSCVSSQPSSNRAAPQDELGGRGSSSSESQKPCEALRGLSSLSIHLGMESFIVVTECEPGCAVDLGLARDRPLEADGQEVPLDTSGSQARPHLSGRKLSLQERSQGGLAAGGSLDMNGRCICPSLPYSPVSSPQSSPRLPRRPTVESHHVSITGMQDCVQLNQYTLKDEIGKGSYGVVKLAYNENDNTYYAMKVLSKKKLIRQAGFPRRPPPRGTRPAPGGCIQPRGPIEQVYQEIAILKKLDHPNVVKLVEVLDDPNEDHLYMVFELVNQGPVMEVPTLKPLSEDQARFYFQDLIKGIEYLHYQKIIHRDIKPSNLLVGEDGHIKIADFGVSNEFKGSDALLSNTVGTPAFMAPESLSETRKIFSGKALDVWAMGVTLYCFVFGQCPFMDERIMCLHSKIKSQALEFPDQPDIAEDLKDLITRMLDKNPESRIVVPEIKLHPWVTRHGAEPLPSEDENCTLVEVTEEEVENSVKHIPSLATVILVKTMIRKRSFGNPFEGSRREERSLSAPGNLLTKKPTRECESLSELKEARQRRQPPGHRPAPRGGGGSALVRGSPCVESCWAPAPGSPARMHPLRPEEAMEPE
Experimental: as §1, §2, §3

[2] = target: ABL1(M351T)-phosphorylated (Homo sapiens (Human), UniProt P00519, M351T)
Experimental: as §1, §2, §3

BMX = BMX (Homo sapiens (Human), UniProt P51813)
Experimental: as §1, §2, §3

EPHB4 = EPHB4 (Homo sapiens (Human), UniProt P54760)
Chain of EPHB4 (P54760 16-987): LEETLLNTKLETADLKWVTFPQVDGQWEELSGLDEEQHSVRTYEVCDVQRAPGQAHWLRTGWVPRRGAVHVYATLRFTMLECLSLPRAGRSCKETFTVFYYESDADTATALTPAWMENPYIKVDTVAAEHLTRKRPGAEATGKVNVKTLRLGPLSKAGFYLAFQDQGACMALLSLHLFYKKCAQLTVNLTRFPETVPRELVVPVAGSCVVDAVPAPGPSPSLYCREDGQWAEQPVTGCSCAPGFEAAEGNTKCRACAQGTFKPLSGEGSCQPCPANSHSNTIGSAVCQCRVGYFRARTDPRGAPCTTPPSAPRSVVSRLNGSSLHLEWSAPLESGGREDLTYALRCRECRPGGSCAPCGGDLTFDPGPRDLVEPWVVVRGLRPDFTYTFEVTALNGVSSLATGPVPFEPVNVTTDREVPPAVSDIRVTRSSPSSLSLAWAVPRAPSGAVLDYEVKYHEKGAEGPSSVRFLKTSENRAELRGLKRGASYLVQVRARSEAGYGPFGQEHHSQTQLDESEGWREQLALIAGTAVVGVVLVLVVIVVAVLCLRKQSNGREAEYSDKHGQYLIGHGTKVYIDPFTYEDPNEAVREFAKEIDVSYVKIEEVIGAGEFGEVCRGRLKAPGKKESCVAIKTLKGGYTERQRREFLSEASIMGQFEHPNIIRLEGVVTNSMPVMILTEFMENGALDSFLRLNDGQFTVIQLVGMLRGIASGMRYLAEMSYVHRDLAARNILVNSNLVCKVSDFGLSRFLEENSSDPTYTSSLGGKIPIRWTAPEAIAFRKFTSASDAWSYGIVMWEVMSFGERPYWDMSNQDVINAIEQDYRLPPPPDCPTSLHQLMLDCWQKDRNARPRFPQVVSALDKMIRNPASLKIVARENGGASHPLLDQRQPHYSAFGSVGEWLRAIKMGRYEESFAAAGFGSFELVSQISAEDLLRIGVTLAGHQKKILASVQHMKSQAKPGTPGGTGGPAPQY
Experimental: as §1, §2, §3

PIM1 = PIM1 (Homo sapiens (Human), UniProt P11309)
Chain of PIM1 (P11309 whole entry): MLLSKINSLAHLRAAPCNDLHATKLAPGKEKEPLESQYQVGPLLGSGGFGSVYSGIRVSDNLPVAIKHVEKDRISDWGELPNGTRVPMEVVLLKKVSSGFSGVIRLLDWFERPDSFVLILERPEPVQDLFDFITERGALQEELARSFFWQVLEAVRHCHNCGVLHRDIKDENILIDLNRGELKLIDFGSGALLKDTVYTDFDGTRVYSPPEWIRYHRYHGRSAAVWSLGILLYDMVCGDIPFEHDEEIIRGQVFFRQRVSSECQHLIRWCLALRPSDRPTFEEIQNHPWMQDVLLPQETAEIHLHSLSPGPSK
Experimental: as §1, §2, §3

[3] = target: ABL1(Q252H)-phosphorylated (Homo sapiens (Human), UniProt P00519, Q252H)
Experimental: as §1, §2, §3

PCTK3 = PCTK3 (Homo sapiens (Human), UniProt Q07002)
Experimental: as §1, §2, §3

MAK = MAK (Homo sapiens (Human), UniProt P20794)
Experimental: as §1, §2, §3

IKK-epsilon = IKK-epsilon (Homo sapiens (Human), UniProt Q14164)
Experimental: as §1, §2, §3

[4] = target: RSK3(Kin.Dom.1-N-terminal) (Homo sapiens (Human), UniProt Q15349)
Experimental: as §1, §2, §3

TNK2 = TNK2 (Homo sapiens (Human), UniProt Q07912)
Experimental: as §1, §2, §3

[5] = target: ABL1(T315I)-nonphosphorylated (Homo sapiens (Human), UniProt P00519, T315I)
Experimental: as §1, §2, §3

PIP5K1C = PIP5K1C (Homo sapiens (Human), UniProt O60331)
Experimental: as §1, §2, §3

PFTK1 = PFTK1 (Homo sapiens (Human), UniProt O94921)
Experimental: as §1, §2, §3

PKNB(M. tuberculosis) = PKNB(M. tuberculosis) (Mycobacterium tuberculosis (strain ATCC 25618 / H37Rv), UniProt P9WI81)
Experimental: (§4) Particularly, the compounds of Examples 18 and 57 were selected among all of those compounds of the present invention. DiscoverX Co. was asked to measure the enzyme (kinase) selectivity, and the experiment was performed using scanMAX™ Kinase assay panel.
(§5) At this time, the concentration of the drug treated to each enzyme was 1 uM in DMSO and the control percentage (% control) was determined by the following Equation 1. (Example Compound−Positive Control)/(Negative Control−Positive Control)×100 [Equation 1]
(§6) Herein, the positive control indicates the compound showing the % control of 0%, and the negative control indicates DMSO showing the % control of 100%. The enzyme selectivity in the present invention is defined as follows: When the % control for each enzyme is less than 35% (<35%), it is judged that the compound has the activity to the corresponding enzyme.

PFPK5(P. falciparum) = PFPK5(P. falciparum) (Plasmodium falciparum (isolate 3D7), UniProt P61075)
Experimental: as §4, §5, §6

CDC2L5 = CDC2L5 (Homo sapiens (Human), UniProt Q14004)
Experimental: as §4, §5, §6

PRP4 = PRP4 (Homo sapiens (Human), UniProt Q13523)
Experimental: as §4, §5, §6

PFCDPK1(P. falciparum) = PFCDPK1(P. falciparum) (Plasmodium falciparum (isolate 3D7), UniProt P62344)
Experimental: as §4, §5, §6

Row | Compound | remaining binding at 1 µM (SGK2) [%] | remaining binding at 1 µM (EGFR) [%] | remaining binding at 1 µM (PIK3CA(E545K)) [%] | remaining binding at 1 µM (IRAK4) [%] | remaining binding at 1 µM (PKN2) [%] | remaining binding at 1 µM (ERK5) [%] | remaining binding at 1 µM [1] [%] | remaining binding at 1 µM (LZK) [%] | remaining binding at 1 µM (PIM3) [%] | remaining binding at 1 µM (FGR) [%] | remaining binding at 1 µM (CSF1R-autoinhibited) [%] | remaining binding at 1 µM (YANK1) [%] | remaining binding at 1 µM (CAMK2B) [%] | remaining binding at 1 µM (MAP3K4) [%] | remaining binding at 1 µM (FLT3-autoinhibited) [%] | remaining binding at 1 µM (CAMKK2) [%] | remaining binding at 1 µM [2] [%] | remaining binding at 1 µM (BMX) [%] | remaining binding at 1 µM (EPHB4) [%] | remaining binding at 1 µM (PIM1) [%] | also measured
1 | CCNc1cc(Nc2ccc(C(=O)N3CCC(N4CCOCC4)CC3)cc2OC)nc2[nH]cc(C#N)c12 [Example 18, 4-(ethylamino)-6-((2-methoxy-4-(4-morpholinopiperidine-1-carbonyl)phenyl)amino)-1H-pyrrolo[2,3-b]pyridine-3-carbonitrile] | 64 | 100 | 92 | 99 | 92 | 20 | 100 | 100 | 78 | 100 | 51 | 100 | 73 | 96 | 82 | 52 | 100 | 75 | 100 | 59 | remaining binding at 1 µM [3]: 100%; remaining binding at 1 µM (PCTK3): 86%; remaining binding at 1 µM (MAK): 92%; remaining binding at 1 µM (IKK-epsilon): 96%; remaining binding at 1 µM [4]: 92%; remaining binding at 1 µM (TNK2): 92%; remaining binding at 1 µM [5]: 96%; remaining binding at 1 µM (PIP5K1C): 67%; remaining binding at 1 µM (PFTK1): 89%; remaining binding at 1 µM (PKNB(M. tuberculosis)): 82%; remaining binding at 1 µM (PFPK5(P. falciparum)): 98%; remaining binding at 1 µM (CDC2L5): 100%; remaining binding at 1 µM (PRP4): 100%; remaining binding at 1 µM (PFCDPK1(P. falciparum)): 72%
2 | CCNc1cc(Nc2ccc(C(=O)N3CCC(N4CCOCC4)CC3)cc2OC)nc2[nH]cc(C(F)(F)F)c12 [Example 57, (4-((4-(ethylamino)-3-(trifluoromethyl)-1H-pyrrolo[2,3-b]pyridin-6-yl)amino)-3-methoxyphenyl) (4-morpholinopiperidin-1-yl)methanone] | 100 | 59 | 73 | 100 | 92 | 50 | 100 | 100 | 78 | 78 | 83 | 100 | 80 | 79 | 92 | 49 | 98 | 89 | 88 | 94 | remaining binding at 1 µM [3]: 100%; remaining binding at 1 µM (PCTK3): 86%; remaining binding at 1 µM (MAK): 95%; remaining binding at 1 µM (IKK-epsilon): 96%; remaining binding at 1 µM [4]: 75%; remaining binding at 1 µM (TNK2): 86%; remaining binding at 1 µM [5]: 100%; remaining binding at 1 µM (PIP5K1C): 69%; remaining binding at 1 µM (PFTK1): 95%; remaining binding at 1 µM (PKNB(M. tuberculosis)): 100%; remaining binding at 1 µM (PFPK5(P. falciparum)): 98%; remaining binding at 1 µM (CDC2L5): 92%; remaining binding at 1 µM (PRP4): 91%; remaining binding at 1 µM (PFCDPK1(P. falciparum)): 98%
